Five compounds from patent US12459951B2, “Compounds that interact with RAS superfamily proteins for treatment of cancers, inflammatory diseases, rasopathies, and fibrotic disease” (SHY Therapeutics, LLC, priority 2022, dated 2025) can be followed below.

The structures appear in SMILES notation.

For experiment [1], the system named is MAPK p38 phosphorylation. Briefly: MAPK p38 Activation Assay (western blot), Panc-1. The conditions noted are these: at 10 μM, Panc-1 pancreatic cancer cell line; starred symbols = activation. Format: cell-based, human. In a few lines:
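Panc-1 cells (KRas G12D) were treated with compound for 6 h at 37 °C, at 10 μM or as serial dilutions for IC50, with 0.3% DMSO. Method 1 used overnight serum-starved cells (0.5% FBS) stimulated with 1.5 ng/ml EGF for 15 min; Method 2 used unstimulated cells in 10% FBS. Phospho-p38 (Thr180/Tyr182) was detected by western blot.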
(In general: In western blotting, separated proteins are transferred to a membrane and probed.)

Experiment [2] deals with T1, cdc42 (Homo sapiens, UniProt P60953).
T1 construct: made in house
T1 sequence (P60953 whole entry): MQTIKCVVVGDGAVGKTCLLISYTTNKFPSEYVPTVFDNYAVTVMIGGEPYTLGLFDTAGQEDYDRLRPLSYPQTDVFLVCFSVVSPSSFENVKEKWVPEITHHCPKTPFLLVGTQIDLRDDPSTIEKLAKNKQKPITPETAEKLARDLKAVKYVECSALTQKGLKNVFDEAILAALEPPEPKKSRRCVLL
Briefly: Cdc42 GTP Binding Domain Inhibition Assay. To be noted: read-out: Cdc42: % inh. A digest of the protocol: (§1)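 His-tagged cdc42 or Rheb (10–30 μg/mL) bound to nickel plates, then exposed to compound (20 μM, or serial dilutions for IC50) in 1% DMSO for 3 h at room temperature, ±Sos during final hour. Cy3- or Cy5-GTP (100 nM) added for 45 min; bound labelled GTP read by fluorescence after washes.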

Experiment [3] deals with T2, Rheb (Homo sapiens, UniProt Q15382).
T2 construct: made in house
T2 sequence (Q15382 whole entry): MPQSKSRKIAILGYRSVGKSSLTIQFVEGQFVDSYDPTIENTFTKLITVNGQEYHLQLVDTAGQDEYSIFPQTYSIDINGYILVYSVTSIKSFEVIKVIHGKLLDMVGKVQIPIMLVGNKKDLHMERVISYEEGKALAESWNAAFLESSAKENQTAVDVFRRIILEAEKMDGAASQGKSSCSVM
Briefly: Rheb GTP Binding Domain Inhibition Assay. The conditions noted are these: read-out: Rheb: % inh. In a few lines: as §1

Experiment [4] has as its system Smad2/Smad3 phosphorylation. Briefly: Phospho-Smad2/3 Inhibition Assay (western blot), Panc-1. The experiment is classed as cell-based, human. To be noted: at 10 μM, Panc-1 pancreatic cancer cell line; starred symbols = activation. In a few lines: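 Western blotting of lysates (15-50 μg protein) read phosphorylation of Smad2 Ser465/467 and Smad3 Ser423/425. Before lysis, Panc-1 cells got 1 h of 10 ng/ml TGF-b1 following 3 h compound exposure at 37° C (10 μM final, or serial dilutions for IC50, 0.3% DMSO) after overnight 0.5% FBS starvation.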

Consider `COc1cccc(-c2cn3nc(-c4nccn4C)nc(N[C@@H]4CC[C@@H](OC)C4)c3c2-c2ccccc2)c1Cl.Cl` (racemic) [Compound 34, rac 6-(2-Chloro-3-methoxyphenyl)-N-((1R,3R)-3-methoxycyclopentyl)-2-(1-methyl-1H-imidazol-2-yl)-5-phenylpyrrolo[2,1-f][1,2,4]triazin-4-amine hydrochloride], for which, in experiment [1], the “% inh of MAPK p38 in Panc-1” value is “H (H = 100% inhibition)”. Further, the inhibition at 20 µM in experiment [2] is 1 to 25%; in experiment [3], 26 to 49%.

`COCCO[C@H]1C[C@H](Nc2nc(-c3nccn3C)nn3cc(-c4ccn(C(C)C)n4)c(C)c23)C1` [Compound 92, 6-(1-Isopropyl-1H-pyrazol-3-yl)-N-((1r,3r)-3-(2-methoxyethoxy)cyclobutyl)-5-methyl-2-(1-methyl-1H-imidazol-2-yl)pyrrolo[2,1-f][1,2,4]triazin-4-amine]: the “% inh of Smad2/3 phosphorylation in Panc-1” value in experiment [4] is listed as “A* (A* = 1-25% activation)”. Also, the inhibition at 20 µM in experiment [2] is 1 to 25%; in experiment [3], 0%.

Turning to `Cc1c(-c2ccn(C(C)C)n2)cn2nc(-c3nccn3C)nc(Nc3noc(C4CC4)n3)c12` [Compound 75, 5-Cyclopropyl-N-(6-(1-isopropyl-1H-pyrazol-3-yl)-5-methyl-2-(1-methyl-1H-imidazol-2-yl)pyrrolo[2,1-f][1,2,4]triazin-4-yl)-1,2,4-oxadiazol-3-amine], the “% inh of Smad2/3 phosphorylation in Panc-1” value in experiment [4] is given as “A (A = 1-25% inhibition)”. Moreover, the inhibition at 20 µM in experiment [2] and in experiment [3] was 1 to 25% throughout.

As to `COCC1CCN(c2nc(-c3nccn3C)nn3cc(-c4ccn(C(C)C)n4)c(-c4ccccc4)c23)C1.Cl` (racemic) [Compound 19, rac 6-(1-Isopropyl-1H-pyrazol-3-yl)-4-(3-(methoxymethyl)pyrrolidin-1-yl)-2-(1-methyl-1H-imidazol-2-yl)-5-phenylpyrrolo[2,1-f][1,2,4]triazine hydrochloride salt], in experiment [1], the “% inh of MAPK p38 in Panc-1” value was “H* (H* ≥ 100% activation)”.

As for `COc1cc(Nc2nc(-c3nccn3C)nn3cc(-c4ccn(C(C)C)n4)c(-c4ccccc4)c23)ncn1` [Compound 22, 6-(1-Isopropyl-1H-pyrazol-3-yl)-N-(6-methoxypyrimidin-4-yl)-2-(1-methyl-1H-imidazol-2-yl)-5-phenylpyrrolo[2,1-f][1,2,4]triazin-4-amine], in experiment [1], the “% inh of MAPK p38 in Panc-1” value was “H* (H* ≥ 100% activation)”.
